Measurements from patent US6911477B2, “Muscarinic receptor agonists” (Pfizer Inc., priority 1996, dated 2005).
Structures can show the parent of a compound that is named as a salt.

Row | SMILES | melting point
1 | c1ccc(N=C(N=C(Nc2ccccc2)c2ccccc2)N2CCCC2)cc1 (as salt: hydrochloride) [Example 1, N-Phenyl-N′-(phenylimino-pyrrolidin-1-yl-methyl)-benzamidine] | 246 to 247 °C
2 | Fc1ccc(NC(=NC(=Nc2ccccc2)N2CCCC2)c2ccccc2)cc1 (as salt: hydrochloride) [Example 2, N-(4-Fluoro-phenyl)-N′-(phenylimino-pyrrolidin-1-yl-methyl)-benzamidine] | 259 to 260 °C (dec.)
3 | Cc1ccccc1C(=NC(=Nc1ccccc1)N1CCC(=O)CC1)Nc1ccc(F)cc1 (as salt: hydrochloride) [Example 8, N-(4-Fluoro-phenyl)-2-methyl-N′-[(4-oxo-piperidin-1-yl)-phenylimino-methyl]-benzamidine] | 234 to 235 °C
4 | Cc1cccc(C)c1C(=NC(=Nc1ccccc1)N1CCC(O)CC1)Nc1ccc(F)cc1 (as salt: hydrochloride) [Example 9, N-(4-Fluoro-phenyl)N′-[(4-hydroxy-piperidin-1-yl)-phenylimino-methyl]-2,6-dimethyl-benzamidine] | 163 to 165 °C
5 | COc1ccc(NC(=NC(=Nc2ccccc2)N2CCCC2)c2ccccc2)cc1 (as salt: hydrochloride) [Example 15, N-(4-methoxy-phenyl)-N′-(phenylimino-pyrrolidin-1-yl-methyl)-benzamidine] | 244 to 245 °C
6 | Clc1ccc(NC(=NC(=Nc2ccccc2)N2CCCC2)c2ccccc2)cc1 (as salt: hydrochloride) [Example 16, N-(4-chloro-phenyl)-N′-(phenylimino-pyrrolidin-1-yl-methyl)-benzamidine] | 219 to 221 °C
7 | Cc1ccccc1C(=NC(=Nc1ccccc1)N1CCCC1)Nc1ccccc1 (as salt: hydrochloride) [Example 20, 2-methyl-N-phenyl-N′-(phenylimino-pyrrolidin-1-yl-methyl)-benzamidine] | 191 to 192 °C
8 | Cc1ccccc1C(=Nc1ccccc1)NC(=Nc1ccccc1)N1CCC(O)CC1 (as salt: hydrochloride) [Example 24, N-[(4-hydroxy-piperidin-1-yl)-phenylimino-methyl]-2-methyl-N′-phenyl-benzamidine] | 218 to 220 °C
9 | Fc1ccc(N=C(NC(=Nc2ccccc2)c2ccccc2)N2CCCC2)cc1 (as salt: hydrochloride) [Example 25, N-[(4-fluoro-phenylimino)-pyrrolidin-1-yl-methyl]-N′-phenyl-benzamidine] | 242 to 243 °C
10 | Cc1ccccc1C(=NC(=Nc1ccccc1)N1CCC(O)CC1)Nc1ccc(F)cc1 (as salt: hydrochloride) [Example 26, N-(4-fluoro-phenyl)-N′-[(4-hydroxy-piperidin-1-yl)-phenylimino-methyl]-2-methyl-benzamidine] | 228 to 230 °C (dec.)
11 | Fc1ccccc1N=C(NC(=Nc1ccccc1)c1ccccc1)N1CCCC1 (as salt: hydrochloride) [Example 27, N-[(2-fluoro-phenylimino)-pyrrolidin-1-yl-methyl]-N′-phenyl-benzamidine] | 254 to 255 °C
12 | Cc1ccccc1C(=NC(=Nc1ccccc1)N1CCCCC1C)Nc1ccc(F)cc1 (stereo not drawn) (as salt: hydrochloride) [Example 28, N-(4-fluoro-phenyl)-2-methyl-N′-[(2-methyl-piperidin-1-yl)-phenylimino-methyl]-benzamidine] | 173 to 175 °C
13 | Cc1ccccc1C(=Nc1ccccc1)NC(=Nc1ccc(F)cc1)N1CCC(O)CC1 (as salt: hydrochloride) [Example 29, N-[(4-fluoro-phenylimino)-(4-hydroxy-piperidin-1-yl)-methyl]-2-methyl-N′-phenyl-benzamidine] | 224 to 225 °C
14 | Clc1ccccc1C(=NC(=Nc1ccccc1)N1CCCC1)Nc1ccccc1 (as salt: hydrochloride) [Example 30, 2-chloro-N-phenyl-N′-(phenylimino-pyrrolidin-1-yl-methyl)-benzamidine] | 228 to 230 °C
15 | Cc1ccccc1C(=Nc1ccc(F)cc1)NC(=Nc1ccccc1)N1CCCCCC1 (as salt: hydrochloride) [Example 34, N-(azepan-1-yl-phenylimino-methyl)-N′-(4-fluoro-phenyl)-2-methyl-benzamidine] | 240 to 242 °C
16 | Cc1cccc(C)c1C(=Nc1ccc(F)cc1)NC(=Nc1ccccc1)N1CCCCC1C (stereo not drawn) (as salt: hydrochloride) [Example 35, N-[(2,6-dimethyl-phenyl)-(4-fluoro-phenylimino)-methyl]-2-methyl-N′-phenyl-piperidine-1-carboxamidine] | 181 to 183 °C
17 | Cc1ccccc1C(=NC(=Nc1ccccc1F)N1CCC(O)CC1)Nc1ccc(F)cc1 (as salt: hydrochloride) [Example 36, N-(4-fluoro-phenyl)-N′-[(2-fluoro-phenylimino)-(4-hydroxy-piperidin-1-yl)-methyl]-2-methyl-benzamidine] | 174 to 175 °C

Second part, the compound after the results:

Row | melting point | SMILES
18 | 145 to 147 °C | CC1CCCCN1C(=Nc1ccccc1)NC(=Nc1ccc(F)cc1)c1ccccc1Cl (stereo not drawn) (as salt: hydrochloride) [Example 37, N-[(2-chloro-phenyl)-(4-fluoro-phenylimino)-methyl]2-methyl-N′-phenyl-piperidine-1-carboxamidine]
19 | 199 to 200 °C (dec.) | Cc1ccccc1C(=NC(=Nc1ccccc1)N1CCCCO1)Nc1ccc(F)cc1 (as salt: hydrochloride) [Example 42, N-(4-fluoro-phenyl)-2-methyl-N′-([1,2]oxazinan-2-yl-phenylimino-methyl)-benzamidine]
20 | 162 to 164 °C (dec.) | Cc1cccc(C)c1C(=NC(=Nc1ccc(F)cc1)N1CCCCC1C)Nc1ccc(F)cc1 (stereo not drawn) (as salt: hydrochloride) [Example 43, N-(4-fluoro-phenyl)-N′-[(4-fluoro-phenylimino)-(2-methyl-piperidin-1-yl)-methyl]-2,6-dimethyl-benzamidine]
21 | 153 to 155 °C (dec.) | CC1CCCCN1C(N=C(Nc1ccc(F)cc1)c1c(Cl)cccc1Cl)=Nc1ccccc1 (stereo not drawn) (as salt: hydrochloride) [Example 45, 2,6-dichloro-N-(4-fluoro-phenyl)-N′-[(2-methyl-piperidin-1-yl)-phenylimino-methyl]-benzamidine]
22 | 149 to 151 °C (dec.) | Cc1cccc(C)c1C(=Nc1ccc(F)cc1)NC(=Nc1ccc(Cl)cc1)N1CCCCC1C (stereo not drawn) (as salt: hydrochloride) [Example 46, N-[(4-chloro-phenylimino)-(2-methyl-piperidin-1-yl)-methyl]-N′-(4-fluoro-phenyl)-2,6-dimethyl-benzamidine]
23 | 219 to 221 °C | Cc1ccccc1C(=Nc1ccc(F)cc1)NC(=Nc1ccccc1)C12CC3CC(CC(C3)C1)C2 (as salt: hydrochloride) [Example 47, N-(adamantan-1-yl-phenylimino-methyl)-N′-(4-fluoro-phenyl)-2-methyl-benzamidine]
24 | 172 to 174 °C (dec.) | Cc1cccc(C)c1C(=Nc1ccc(F)cc1)NC(=Nc1ccccc1)N1C(C)CCCC1C (stereo not drawn) (as salt: hydrochloride) [Example 48, N-[(2,6-dimethyl-piperidin-1-yl)-phenylimino-methyl]-N′-(4-fluoro-phenyl)-2,6-dimethyl-benzamidine]
25 | 155 to 157 °C | Cc1cccc(C)c1C(=Nc1ccc(F)cc1)NC(=Nc1ccc(F)cc1)N1CCCCCC1 (as salt: hydrochloride) [Example 49, N-[azepan-1-yl-(4-fluoro-phenylimino)-methyl]-N′-(4-fluoro-phenyl)-2,6-dimethyl-benzamidine]
26 | 213 to 214 °C | Cc1cccc(C)c1C(=NC(=Nc1ccc(F)cc1)N1CCCCO1)Nc1ccc(F)cc1 (as salt: hydrochloride) [Example 50, N-(4-fluoro-phenyl)-N′-[(4-fluoro-phenylimino)-[1,2]oxazinan-2-yl-methyl]-2,6-dimethyl-benzamidine]
27 | 243 to 245 °C | Cc1cccc(C)c1C(=Nc1ccc(F)cc1)NC(=Nc1ccccc1)N1CCCCCC1 (as salt: hydrochloride) [Example 53, N-(azepan-1-yl-phenylimino-methyl)-N′-(4-fluoro-phenyl)-2,6-dimethyl-benzamidine]
28 | 216 to 218 °C | Fc1ccc(N=C(NC(=Nc2ccc(F)cc2)N2CCCCCC2)c2c(F)cccc2F)cc1 (as salt: hydrochloride) [Example 57, N-[azepan-1-yl-(4-fluoro-phenylimino)-methyl]-2,6-difluoro-N′-(4-fluoro-phenyl)-benzamidine]
29 | 137 to 139 °C (dec.) | CCC1CCCCN1C(=Nc1ccccc1)NC(=Nc1ccc(F)cc1)c1c(C)cccc1C (stereo not drawn) (as salt: hydrochloride) [Example 58, N-[(2-ethyl-piperidin-1-yl)-phenylimino-methyl]-N′-(4-fluoro-phenyl)-2,6-dimethyl-benzamidine]
30 | 165 to 167 °C (dec.) | Cc1cccc(C)c1C(=Nc1ccc(F)cc1)NC(=Nc1ccccc1)N1C(C)CCCC1C (stereo not drawn) (as salt: hydrochloride) [Example 59, N-[(2,6-dimethyl-piperidin-1-yl)-phenylimino-methyl]-N′-(4-fluoro-phenyl)-2,6-dimethyl-benzamidine]
31 | 162 to 164 °C (dec.) | COc1ccc(NC(=NC(=Nc2ccccc2)N2CCCCC2C)c2ccccc2C)cc1 (stereo not drawn) (as salt: hydrochloride) [Example 60, N-(4-methoxy-phenyl)-2-methyl-N′-[(2-methyl-piperidin-1-yl)-phenylimino-methyl]-benzamidine]
32 | 212 to 214 °C (dec.) | Cc1cccc(C)c1C(=NC(=Nc1ccccc1)N1CCCCO1)Nc1ccc(F)cc1 (as salt: hydrochloride) [Example 61, N-(4-fluoro-phenyl)-2,6-dimethyl-N′-([1,2]oxazinan-2-yl-phenylimino-methyl)-benzamidine]
33 | 196 to 198 °C (dec.) | Cc1cccc(C)c1C(=NC(=Nc1ccccc1)N1CCCC(O)C1)Nc1ccc(F)cc1 (stereo not drawn) (as salt: hydrochloride) [Example 62, N-(4-fluoro-phenyl)-N′-[(3-hydroxy-piperidin-1-yl)-phenylimino-methyl]-2,6-dimethyl-benzamidine]
